The values below come from US7462713B2, “Tricyclic compounds protein kinase inhibitors for enhancing the efficacy of anti-neoplastic agents and radiation therapy” (Agouron Pharmaceuticals, Inc., priority 2003, dated 2008).

Structures can show the parent of a compound that is named as a salt.

The assay deals with T1, kinase domain of human CHK-1 (KH289) (Homo sapiens, UniProt O14757).
T1 construct: kinase domain of human CHK-1 (KH289), amino acid residues 1-289; made in house; host or cells: baculovirus (Bac-to-Bac); Hi-S insect cells for protein production, Sf9/Sf21 for virus amplification
T1 sequence (O14757 1-289): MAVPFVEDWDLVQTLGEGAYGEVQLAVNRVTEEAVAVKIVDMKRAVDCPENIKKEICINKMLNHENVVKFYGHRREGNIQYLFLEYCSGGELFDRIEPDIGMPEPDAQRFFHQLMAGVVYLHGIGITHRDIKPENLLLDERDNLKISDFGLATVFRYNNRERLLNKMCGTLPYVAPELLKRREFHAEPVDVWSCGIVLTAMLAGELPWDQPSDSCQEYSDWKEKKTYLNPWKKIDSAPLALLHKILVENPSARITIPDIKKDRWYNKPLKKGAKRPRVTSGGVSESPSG
Description: CHK-1 coupled spectrophotometric enzyme assay (Syntide-2, PK/LDH, NADH oxidation). The note with it: 10 nM KH289, 0.15 mM ATP, 0.125 mM Syntide-2, pH 7.5. Type of assay: biochemical. The source says:
As previously detailed in European Patent Application No. 1 096 014 A2 (filed Oct. 31, 2000), the C-terminally His-tagged kinase domain of human CHK-1 (KH289), amino acid residues 1-289, can be expressed using the baculovirus/insect cell system. […] The Bac-to-Bac system (Life Technologies) can be used to generate recombinant baculovirus for the expression of KH289 as per instructions. Recombinant viruses can be confirmed by PCR for the presence of CHK-1 cDNA insertion. […] Sf9 insect cells (Invitrogen, Carlsbad, Calif., USA) can be used for initial amplification of recombinant virus stock. High titer stocks of recombinant viruses can be generated by 2 to 3 rounds of amplification using Sf21 insect cells. Hi-S insect cells (Invitrogen, Carlsbad, Calif., USA) can be used for protein production. Both Sf9 and Hi-S cell lines can be adapted to grow in insect medium containing 1% Fetal Bovine Serum (Life Technologies, Grand Island, N.Y., USA). The viral stock was stored at […] and used for large-scale protein production within 2 months to avoid viral instability. For protein production, infected Hi-S cells can be harvested by centrifugation and stored at −80° C. From these cells, 6X-His tagged KH289 (identified by SDS-PAGE) can be obtained after purification and can be flash-frozen in liquid N2 and stored at −80° C.
As previously detailed in European Patent Application No. 1 096 014 A2 (filed Oct. 31, 2000), the enzymatic activity of a kinase can be measured by its ability to catalyze the transfer of a phosphate residue from a nucleoside triphosphate to an amino acid side chain in a selected protein target. The conversion of ATP to ADP generally accompanies the catalytic reaction. Herein, a synthetic substrate peptide, Syntide-2, having amino acid sequence […] can be utilized. The production of ADP from ATP that accompanies phosphoryl transfer to the substrate can be coupled to oxidation of NADH using phosphoenolpyruvate (PEP) through the actions of pyruvate kinase (PK) and lactic dehydrogenase (LDH). The oxidation of NADH can be monitored by following the decrease of absorbance at 340 nm (e340=6.22 cm-1 mM-1) using a HP8452 spectrophotometer. Typical reaction solutions contained: 4 mM PEP, 0.15 mM NADH, 28 units of LDH/mL, 16 units of PK/mL, 3 mM DTT, 0.125 mM Syntide-2, 0.15 mM ATP and 25 mM MgCl2 in 50 mM TRIS pH 7.5; 400 mM NaCl. Assays can be initiated with 10 nM of kinase domain of CHK-1, KH289. Ki values can be determined by measuring initial enzyme activity in the presence of varying concentrations of inhibitors. The data can be analyzed using Enzyme Kinetic and Kaleidagraph software.

`Cn1cc(-c2[nH]c3cc(NC(=O)CNCc4ccccc4)cc4c3c2C=NNC4=O)cn1` [Example 270, 2-Benzylamino-N-[2-(1-methyl-1H-pyrazol-4-yl)-6-oxo-5,6-dihydro-1H-[1,2]diazepino[4,5,6-cd]indol-8-yl]-acetamide (hydrochloric salt)] had a Ki of 790 pM.

Broadly, the Ki is the dissociation constant of the complex between target and ligand, obtained from inhibition or displacement.
